Source: article PMC11783400, “Assessment of Potential Drug–Drug Interactions for Novel Oral Melanocortin‐1 Receptor Agonist Dersimelagon” (Pharmacology Research & Perspectives, 2025)

Key:
[1] = target: T1, CYP2B6 (Homo sapiens, UniProt P20813); assay: CYP activity inhibition in human liver microsomes; format: biochemical; conditions: read-out: IC50 (μM) / Direct inhibition
T1 construct: native enzyme in human liver microsomes
T1 sequence (P20813 1-491): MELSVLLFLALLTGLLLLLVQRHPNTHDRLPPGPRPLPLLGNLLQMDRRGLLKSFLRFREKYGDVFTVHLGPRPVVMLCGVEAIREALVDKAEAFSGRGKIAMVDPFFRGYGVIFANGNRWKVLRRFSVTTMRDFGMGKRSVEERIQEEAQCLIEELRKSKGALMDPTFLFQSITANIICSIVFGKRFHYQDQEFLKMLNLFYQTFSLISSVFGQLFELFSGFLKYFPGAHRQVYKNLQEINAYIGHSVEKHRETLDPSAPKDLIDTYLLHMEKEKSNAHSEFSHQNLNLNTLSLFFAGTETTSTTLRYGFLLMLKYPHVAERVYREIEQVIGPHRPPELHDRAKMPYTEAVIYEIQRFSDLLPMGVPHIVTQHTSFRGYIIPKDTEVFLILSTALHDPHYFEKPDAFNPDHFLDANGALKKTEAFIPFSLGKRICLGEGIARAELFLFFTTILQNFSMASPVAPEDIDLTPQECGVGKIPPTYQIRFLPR
Source text: CYP activity inhibition in human liver microsomes on CYP2B6

[2] = target: T2, BCRP (breast cancer resistance protein) (Homo sapiens, UniProt Q9UNQ0); assay: transport inhibition in Caco-2 monolayers; format: cell-based
T2 construct: gene ABCG2; endogenous transporter in Caco-2 cell monolayers
T2 sequence (Q9UNQ0 1-655): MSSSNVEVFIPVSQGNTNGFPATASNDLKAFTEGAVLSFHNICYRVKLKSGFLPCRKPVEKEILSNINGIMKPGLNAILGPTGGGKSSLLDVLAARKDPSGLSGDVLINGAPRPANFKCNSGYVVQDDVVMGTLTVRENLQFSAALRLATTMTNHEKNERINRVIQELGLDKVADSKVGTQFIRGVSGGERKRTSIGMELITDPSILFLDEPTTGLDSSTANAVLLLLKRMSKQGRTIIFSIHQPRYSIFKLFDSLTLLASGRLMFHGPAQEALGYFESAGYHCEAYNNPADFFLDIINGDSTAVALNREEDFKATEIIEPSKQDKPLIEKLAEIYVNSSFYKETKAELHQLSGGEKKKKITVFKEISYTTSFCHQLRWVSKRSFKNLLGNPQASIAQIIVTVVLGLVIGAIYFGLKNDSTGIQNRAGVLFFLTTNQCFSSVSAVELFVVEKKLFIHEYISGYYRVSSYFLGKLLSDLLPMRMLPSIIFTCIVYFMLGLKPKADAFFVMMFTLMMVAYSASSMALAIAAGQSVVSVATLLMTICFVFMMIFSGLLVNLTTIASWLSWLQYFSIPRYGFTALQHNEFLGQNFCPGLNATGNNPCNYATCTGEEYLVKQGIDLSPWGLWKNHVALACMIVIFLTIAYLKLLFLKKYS
Source text: transport inhibition in Caco-2 monolayers on BCRP (breast cancer resistance protein)

## COC[C@H]1CN(C(=O)[C@]2(F)CN(C3CCCC3)C[C@H]2c2ccc(OC)cc2)C[C@@H]1c1ccc(C(F)(F)F)cc1N1CCC(C(=O)O)CC1 [dersimelagon]
[1]
  IC50: 48.9 µM
[2]
  IC50: 467 nM
